In the assay the target is alpha-enolase (ENO1) (Homo sapiens, UniProt P06733). Description: MST with NT-647-NHS labelled recombinant ENO1. The format is binding.

In general, Kd refers to a measure of binding affinity in units of concentration.

Chain of alpha-enolase (ENO1) (P06733 2-434): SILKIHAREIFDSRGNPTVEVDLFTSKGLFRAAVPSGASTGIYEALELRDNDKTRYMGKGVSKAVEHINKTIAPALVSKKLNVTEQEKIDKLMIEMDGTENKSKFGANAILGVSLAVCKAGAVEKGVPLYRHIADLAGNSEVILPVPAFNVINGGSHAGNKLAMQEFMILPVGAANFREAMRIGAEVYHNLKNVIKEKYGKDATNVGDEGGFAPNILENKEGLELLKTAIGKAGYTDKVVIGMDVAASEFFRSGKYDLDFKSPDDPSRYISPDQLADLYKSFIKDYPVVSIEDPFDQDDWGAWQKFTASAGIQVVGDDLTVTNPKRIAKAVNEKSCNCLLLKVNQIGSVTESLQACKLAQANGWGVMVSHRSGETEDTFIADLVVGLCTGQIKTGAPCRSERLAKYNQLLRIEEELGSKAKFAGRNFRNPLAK

Take `O=c1cc(-c2ccccc2)oc2cc(O)cc(O)c12` [compound 1, chrysin]: the Kd came out at 15 µM.

The values above are taken from publication PMC11873566 (Acta Pharmaceutica Sinica. B, 2024).
